Measurements published in ChEMBL document CHEMBL6083204, “Synthesis of a celastrol derivative as a cancer stem cell inhibitor through regulation of the STAT3 pathway for treatment of ovarian cancer” (RSC Med Chem, 2024).
Active and inactive are the calls of the source. The rule behind the calls is not given here.

Columns and labels:
SK-OV-3 [1] = assay: Antiproliferative activity against human SK-OV-3 cells assessed as inhibition of cell growth incubated for 72 hrs by MTT assay; type: functional, cell-based; conditions: SK-OV-3, 72 h
[2] = Cytotoxicity against human IOSE80 cells assessed as inhibition of cell growth incubated for 72 hrs by MTT assay; type: toxicity, cell-based
A2780 [3] = assay: Inhibition of colony formation in human A2780 cells assessed as reduction in colony number incubated for 10 days by crystal violet staining based analysis; type: functional, cell-based; conditions: time 10.0 day
SK-OV-3 [4] = assay: Inhibition of human SK-OV-3 cells spheroid formation assessed as reduction in spheroid size at 0.1 to 0.4 uM incubated for 10 days by inverted microscopic analysis; type: functional, cell-based; conditions: dose 0.1-0.4 µM, time 10.0 day
A2780 [5] = assay: Inhibition of human A2780 cells spheroid formation assessed as reduction in spheroid size at 0.1 to 0.4 uM incubated for 10 days by inverted microscopic analysis; type: functional, cell-based; conditions: dose 0.1-0.4 µM, time 10.0 day
SK-OV-3 [6] = assay: Antiproliferative activity against human SK-OV-3 cells assessed as decrease in ALDH positive cells at 0.2 uM incubated for 24 hrs by ALDEFLUOR staining based flow cytometry (reference value: 3.83 %); type: functional; parameters: scale not given: the % may be the effect or the level left
SK-OV-3 [7] = assay: Antiproliferative activity against human SK-OV-3 cells assessed as decrease in ALDH positive cells at 0.4 uM incubated for 24 hrs by ALDEFLUOR staining based flow cytometry (reference value: 3.83 %); type: functional; parameters: scale not given: the % may be the effect or the level left
A2780 [8] = assay: Antiproliferative activity against human A2780 cells assessed as decrease in ALDH positive cells at 0.4 uM incubated for 24 hrs by ALDEFLUOR staining based flow cytometry (reference value: 32.5 %); type: functional; parameters: scale not given: the % may be the effect or the level left
[9] = target: Signal transducer and activator of transcription 3 (Homo sapiens) (UniProt P40763); assay: Inhibition of STAT3 in human SK-OV-3 cells assessed as downregulation of survivin expression at 0.1 to 0.4 uM incubated for 24 hrs by Western blotting analysis; type: cell-based; conditions: dose 0.1-0.4 µM
Sequence of Signal transducer and activator of transcription 3 (Homo sapiens) (P40763 whole entry): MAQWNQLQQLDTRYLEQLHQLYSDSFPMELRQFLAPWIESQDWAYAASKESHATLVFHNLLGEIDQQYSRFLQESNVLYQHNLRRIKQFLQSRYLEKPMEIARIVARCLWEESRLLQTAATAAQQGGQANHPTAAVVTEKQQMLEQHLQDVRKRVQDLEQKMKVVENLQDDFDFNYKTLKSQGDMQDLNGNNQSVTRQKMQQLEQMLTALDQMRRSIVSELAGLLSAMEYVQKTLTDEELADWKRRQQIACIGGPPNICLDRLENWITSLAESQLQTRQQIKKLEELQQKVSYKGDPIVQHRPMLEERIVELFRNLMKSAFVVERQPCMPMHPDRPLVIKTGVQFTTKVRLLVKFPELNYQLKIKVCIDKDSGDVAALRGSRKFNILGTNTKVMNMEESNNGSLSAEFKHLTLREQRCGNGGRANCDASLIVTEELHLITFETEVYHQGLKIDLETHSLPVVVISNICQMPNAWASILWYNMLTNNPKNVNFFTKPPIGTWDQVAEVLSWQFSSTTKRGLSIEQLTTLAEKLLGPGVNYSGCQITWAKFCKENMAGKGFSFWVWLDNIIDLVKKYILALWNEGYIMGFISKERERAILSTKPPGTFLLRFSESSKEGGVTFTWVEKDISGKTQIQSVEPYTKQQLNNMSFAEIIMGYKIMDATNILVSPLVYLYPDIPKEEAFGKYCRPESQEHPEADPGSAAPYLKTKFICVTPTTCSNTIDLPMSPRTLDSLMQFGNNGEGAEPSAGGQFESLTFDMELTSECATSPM

[10] = target: Signal transducer and activator of transcription 3 (Homo sapiens) (UniProt P40763); assay: Inhibition of STAT3 in human A2780 cells assessed as downregulation of STAT3 phosphorylation at Ser727 residue in nuclei at 0.2 uM incubated for 24 hrs by Hoechst33342 staining based immunofluorescence assay; type: cell-based
SK-OV-3 [11] = assay: Induction of cell cycle arrest in human SK-OV-3 cells assessed as accumulation of cells at S phase at 0.2 uM incubated for 24 hrs by BrdU staining based flow cytometry (reference value: 33.6 %); type: functional
SK-OV-3 [12] = assay: Induction of cell cycle arrest in human SK-OV-3 cells assessed as accumulation of cells at G2/M phase at 0.2 uM incubated for 24 hrs by BrdU staining based flow cytometry (reference value: 6.3 %); type: functional
SK-OV-3 [13] = assay: Induction of cell cycle arrest in human SK-OV-3 cells assessed as accumulation of cells at G2/M phase at 0.8 uM incubated for 24 hrs by BrdU staining based flow cytometry (reference value: 6.3 %); type: functional
A2780 [14] = assay: Induction of cell cycle arrest in human A2780 cells assessed as accumulation of cells at S phase at 0.8 uM incubated for 24 hrs by BrdU staining based flow cytometry (reference value: 51.6 %); type: functional
SK-OV-3 [15] = assay: Induction of cell cycle arrest in human SK-OV-3 cells assessed as reduction of CDK4 expression at 0.2 uM incubated for 24 hrs by flow cytometry (reference value: 66.8 %); type: functional; parameters: scale not given: the % may be the effect or the level left
SK-OV-3 [16] = assay: Induction of cell cycle arrest in human SK-OV-3 cells assessed as reduction of Cyclin D1 expression at 0.8 uM incubated for 24 hrs by flow cytometry (reference value: 93.8 %); type: functional; parameters: scale not given: the % may be the effect or the level left
A2780 [17] = assay: Induction of cell cycle arrest in human A2780 cells assessed as reduction of CDK4 expression at 0.4 uM incubated for 24 hrs by flow cytometry (reference value: 93.6 %); type: functional; parameters: scale not given: the % may be the effect or the level left
SK-OV-3 [18] = assay: Induction of apoptosis in human SK-OV-3 cells assessed as viable cells at 0.8 uM incubated for 24 hrs by Annexin V-FITC/7-AAD staining based flow cytometry (reference value: 94.6 %); type: functional; conditions: read-out: Activity
SK-OV-3 [19] = assay: Induction of apoptosis in human SK-OV-3 cells assessed as early apoptotic cells at 0.4 uM incubated for 24 hrs by Annexin V-FITC/7-AAD staining based flow cytometry (reference value: 1.6 %); type: functional
SK-OV-3 [20] = assay: Induction of apoptosis in human SK-OV-3 cells assessed as late apoptotic cells at 0.2 uM incubated for 24 hrs by Annexin V-FITC/7-AAD staining based flow cytometry (reference value: 3.7 %); type: functional
SK-OV-3 [21] = assay: Induction of apoptosis in human SK-OV-3 cells assessed as necrotic cells at 0.2 uM incubated for 24 hrs by Annexin V-FITC/7-AAD staining based flow cytometry (reference value: 0.6 %); type: functional
A2780 [22] = assay: Induction of apoptosis in human A2780 cells assessed as viable cells at 0.4 uM incubated for 24 hrs by Annexin V-FITC/7-AAD staining based flow cytometry (reference value: 95 %); type: functional; conditions: read-out: Activity
A2780 [23] = assay: Induction of apoptosis in human A2780 cells assessed as necrotic cells at 0.8 uM incubated for 24 hrs by Annexin V-FITC/7-AAD staining based flow cytometry (reference value: 1 %); type: functional
Mitochondrial membrane = assay: Induction of mitochondrial membrane potential loss in human A2780 cells at 0.4 uM incubated for 24 hrs by JC-1 staining based flow cytometry (reference value: 81 %)
SK-OV-3 [24] = assay: Induction of apoptosis in human SK-OV-3 cells assessed as increase in caspase-3 activity at 0.4 uM incubated for 24 hrs by flow cytometry (reference value: 4.6 %); type: functional
SK-OV-3 [25] = assay: Induction of apoptosis in human SK-OV-3 cells assessed as increase in caspase-8 activity at 0.8 uM incubated for 24 hrs by flow cytometry (reference value: 2.5 %); type: functional
A2780 [26] = assay: Induction of apoptosis in human A2780 cells assessed as increase in caspase-3 activity at 0.2 uM incubated for 24 hrs by flow cytometry (reference value: 1.5 %); type: functional
A2780 [27] = assay: Induction of apoptosis in human A2780 cells assessed as increase in caspase-3 activity at 0.4 uM incubated for 24 hrs by flow cytometry (reference value: 1.5 %); type: functional
A2780 [28] = assay: Inhibition of cell migration in human A2780 cells assessed as reduction in number of migrated cells at 0.1 to 0.4 uM incubated for 24 hrs by crystal violet staining based transwell assay; type: functional; conditions: dose 0.1-0.4 µM
SK-OV-3 [29] = assay: Antitumor activity against human SK-OV-3 cells xenografted in BALB/c mouse assessed as reduction in tumor volume at 5 mg/kg,ip administrated for 21 consecutive days relative to control; type: functional; parameters: scale not given: the % may be the effect or the level left
[30] = Toxicity in BALB/c mouse xenografted with human SK-OV-3 cells assessed as pathological change in liver at 2 to 5 mg/kg,ip administrated for 21 consecutive days by hematoxylin and eosin staining based assay; type: organism-based; conditions: in vivo, dose 2-5 mg/kg
[31] = Toxicity in BALB/c mouse xenografted with human SK-OV-3 cells assessed as pathological change in spleen at 2 to 5 mg/kg,ip administrated for 21 consecutive days by hematoxylin and eosin staining based assay; type: organism-based; conditions: in vivo, dose 2-5 mg/kg
[32] = Toxicity in BALB/c mouse xenografted with human SK-OV-3 cells assessed as pathological change in lung at 2 to 5 mg/kg,ip administrated for 21 consecutive days by hematoxylin and eosin staining based assay; type: organism-based; conditions: in vivo, dose 2-5 mg/kg

IC50 (SK-OV-3 [1]): 0.21 µM
inhibition [10]: Active
Activity (Mitochondrial membrane): 49.5%
SMILES: CC1=C(O)C(=O)C=C2C1=CC=C1[C@@]2(C)CC[C@@]2(C)[C@@H]3C[C@](C)(C(=O)N4CCNCC4)CC[C@]3(C)CC[C@]12C
IC50 at 72 h [2]: 1.01 µM
inhibition (A2780 [3]): Dose-dependent-effect
inhibition (SK-OV-3 [4]): Active
inhibition (A2780 [5]): Active
Activity (SK-OV-3 [6]): 2.07%
Activity (SK-OV-3 [7]): 1.3%
Activity (A2780 [8]): 0.37%
inhibition [9]: Active
Activity (SK-OV-3 [11]): 33.8%
Activity (SK-OV-3 [12]): 6.7%
Activity (SK-OV-3 [13]): 18.2%
Activity (A2780 [14]): 6.2%
Activity (SK-OV-3 [15]): 67%
Activity (SK-OV-3 [16]): 53.1%
Activity (A2780 [17]): 17.2%
viability at 0.8 µM (SK-OV-3 [18]): 48%
Activity (SK-OV-3 [19]): 23.3%
Activity (SK-OV-3 [20]): 7.8%
Activity (SK-OV-3 [21]): 0.7%
viability at 0.4 µM (A2780 [22]): 75.3%
Activity (A2780 [23]): 7.1%
Activity (SK-OV-3 [24]): 12.6%
Activity (SK-OV-3 [25]): 74.7%
Activity (A2780 [26]): 3.7%
Activity (A2780 [27]): 24.1%
inhibition (A2780 [28]): Active
Activity (SK-OV-3 [29]): 74.58%
Activity [30]: Non-toxic
Activity [31]: Non-toxic
Activity [32]: Non-toxic
